Measured values reported in patent US8247211B2, “Glycopeptide antibiotics” (American Cyanamid Company, priority 2001, dated 2012).
In brackets after ≈: the same amount, converted by molar mass. Numbered stars: 1 amine (or outer) side, 2 acyl side, 3 side chain; on linkers, the order of the positions; unused ones are H or OH. Square brackets hold non-standard residues; d marks the D form. Peptide text beside a SMILES is read from it. ξ: configuration not given here. X1 = N=C1NCC(C(O)C(N[*:1])C(=O)[*:2])N1C1OC(CO)C(O)C(O)C1O; ξEnduracididine(βξ-OH,4'ξ) = N=C1NCC(C(O)C(N)C(=O)O)N1; Cha = N[CH](CC1CCCCC1)C(=O)O

Columns and labels:
[1] = system: Staphylococcus aureus-SMITH (GC 4543); assay: Acute lethal infection in mice (ED50); assay type: in vivo; details: female CD-1 mice, intraperitoneal challenge, intravenous dose 30 min. after infection, 7 day survival ratios
Procedure, shortened: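 ED50 derived from pooled 7-day survival in three separate experiments, five mice per dose level. Single intravenous dose 30 min after intraperitoneal infection of female CD-1 mice with enough bacteria to kill untreated animals in 24-48 h.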

[2] = Anatomic pathology (heart and kidney histopathology) in mice; assay type: in vivo, CD-1 mice; details: 20 mg/kg intravenously daily for 9 days, microscopic histopathology on day 10
Procedure, shortened: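 Histopathology on H&E-stained, paraffin-embedded sections, subjectively scored (slight, mild, moderate, marked, severe) relative to untreated controls. Dosing: glycopeptide antibiotics 20 mg/kg intravenously once daily ×9 days in 20-day-old CD-1 mice, n=5 per group including vehicle.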

Streptococcus sp. = assay: In vitro antibacterial evaluation: minimum inhibitory concentration (MIC), broth dilution method; assay type: cell-based; details: broth dilution, 18 hours at 35° C.
Procedure, shortened: (§1)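 Inoculum: 5×10^5 CFU/mL. Range: 64-0.06 μg/mL. Medium: Muller-Hinton II […]; NCCLS M7-A2 broth dilution. Endpoint: lowest concentration inhibiting growth. Strains include methicillin-, penicillin- and/or vancomycin-resistant clinical isolates.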

Staphylococcus sp. = assay: as above; assay type: cell-based; details: broth dilution, 18 hours at 35° C.
Procedure, shortened: as §1

Enterococcus sp. = assay: as above; assay type: cell-based; details: broth dilution, 18 hours at 35° C.
Procedure, shortened: as §1

Escherichia coli = assay: as above; assay type: cell-based; details: broth dilution, 18 hours at 35° C.

N=C1NCC(C(O)C2NC(=O)C(CC3CCCCC3)NC(=O)C(CC3CCCCC3)NC(=O)CNC(=O)C(CO)NC(=O)C(C(O)C3CNC(=N)N3C3OC(CO)C(O)C(O)C3O)NC2=O)N1 (stereo not drawn) [Example 52, Cyclo[3-cyclohexylalanyl-3-cyclohexylalanyl-3-(2-iminoimidazolidin-4-yl)seryl-3-(3-hexopyranosyl-2-iminoimidazolidin-4-yl)serylserylglycyl]] (cyclo(G[Cha][Cha][ξEnduracididine(βξ-OH,4'ξ)][X1]S); configuration not given here)
median effective dose (ED50), Staphylococcus aureus-SMITH (GC 4543) [1]: >4 | Anatomical Pathology (Day 10), Heart [2]: 0 | Anatomical Pathology (Day 10), Kidney [2]: +++ | MIC Streptococcus agalactiae (GC 4564) (Streptococcus sp.; Streptococcus agalactiae (GC 4564)): 8 µg/mL (≈ 8.39 µM) | MIC Streptococcus pneumoniae (ATCC 6301) (Streptococcus sp.; Streptococcus pneumoniae (ATCC 6301)): 8 µg/mL (≈ 8.39 µM) | MIC Streptococcus pneumoniae (GC 1894) (Streptococcus sp.; Streptococcus pneumoniae (GC 1894)): 8 µg/mL (≈ 8.39 µM) | MIC Streptococcus pneumoniae (GC 4565) (Streptococcus sp.; Streptococcus pneumoniae (GC 4565)): 16 µg/mL (≈ 16.8 µM) | MIC Streptococcus pyogenes (GC 4563) (Streptococcus sp.; Streptococcus pyogenes (GC 4563)): 8 µg/mL (≈ 8.39 µM) | MIC Streptococcus agalactiae (GC 4564) (Streptococcus sp.): 8 µg/mL (≈ 8.39 µM) | MIC Streptococcus pneumoniae (ATCC 6301) (Streptococcus sp.): 8 µg/mL (≈ 8.39 µM) | MIC Streptococcus pneumoniae (GC 1894) (Streptococcus sp.): 8 µg/mL (≈ 8.39 µM) | MIC Streptococcus pneumoniae (GC 4565) (Streptococcus sp.): 16 µg/mL (≈ 16.8 µM) | MIC Streptococcus pyogenes (GC 4563) (Streptococcus sp.): 8 µg/mL (≈ 8.39 µM) | MIC Coagulase Negative Staphylococcus (GC 4547) (Staphylococcus sp.): 8 µg/mL (≈ 8.39 µM) | MIC Coagulase Negative Staphylococcus (GC 4548) (Staphylococcus sp.): 8 µg/mL (≈ 8.39 µM) | MIC Coagulase Negative Staphylococcus (GC 4549) (Staphylococcus sp.): 4 µg/mL (≈ 4.2 µM) | MIC Coagulase Negative Staphylococcus (GC 4551) (Staphylococcus sp.): 8 µg/mL (≈ 8.39 µM) | MIC Staphylococcus aureus SMITH (GC 4543) (Staphylococcus sp.): 16 µg/mL (≈ 16.8 µM) | MIC Staphylococcus haemolyticus (GC 4546) (Staphylococcus sp.): 4 µg/mL (≈ 4.2 µM) | MIC Staphylococcus aureus-SMITH (GC 4543) (Staphylococcus sp.; strain SMITH GC 4543): 16 µg/mL (≈ 16.8 µM) | MIC Enterococcus avium (GC 4558) (Enterococcus sp.; Enterococcus avium (GC 4558)): 32 µg/mL (≈ 33.6 µM) | MIC Enterococcus faecalis (ATCC 29212) (Enterococcus sp.; Enterococcus faecalis (ATCC 29212)): 64 µg/mL (≈ 67.2 µM) | MIC Enterococcus faecalis (GC 2242) (Enterococcus sp.; Enterococcus faecalis (GC 2242)): 32 µg/mL (≈ 33.6 µM) | MIC Enterococcus faecalis (GC 2691) (Enterococcus sp.; Enterococcus faecalis (GC 2691)): 32 µg/mL (≈ 33.6 µM) | MIC Enterococcus faecalis (GC 3059) (Enterococcus sp.; Enterococcus faecalis (GC 3059)): 32 µg/mL (≈ 33.6 µM) | MIC Enterococcus faecalis (GC 4552) (Enterococcus sp.; Enterococcus faecalis (GC 4552)): 32 µg/mL (≈ 33.6 µM) | MIC Enterococcus faecalis (GC 4553) (Enterococcus sp.; Enterococcus faecalis (GC 4553)): 16 µg/mL (≈ 16.8 µM) | MIC Enterococcus faecalis (GC 4554) (Enterococcus sp.; Enterococcus faecalis (GC 4554)): 64 µg/mL (≈ 67.2 µM) | MIC Enterococcus faecalis (GC 6189) (Enterococcus sp.; Enterococcus faecalis (GC 6189)): 32 µg/mL (≈ 33.6 µM) | MIC Enterococcus faecium (GC 2243) (Enterococcus sp.; Enterococcus faecium (GC 2243)): 16 µg/mL (≈ 16.8 µM) | MIC Enterococcus faecium (GC 4556) (Enterococcus sp.; Enterococcus faecium (GC 4556)): 32 µg/mL (≈ 33.6 µM) | MIC Enterococcus faecium (GC 4557) (Enterococcus sp.; Enterococcus faecium (GC 4557)): 8 µg/mL (≈ 8.39 µM) | MIC Enterococcus avium (GC 4558) (Enterococcus sp.): 32 µg/mL (≈ 33.6 µM) | MIC Enterococcus faecalis (ATCC 29212) (Enterococcus sp.): 64 µg/mL (≈ 67.2 µM) | MIC Enterococcus faecalis (GC 2242) (Enterococcus sp.): 32 µg/mL (≈ 33.6 µM) | MIC Enterococcus faecalis (GC 2691) (Enterococcus sp.): 32 µg/mL (≈ 33.6 µM) | MIC Enterococcus faecalis (GC 3059) (Enterococcus sp.): 32 µg/mL (≈ 33.6 µM) | MIC Enterococcus faecalis (GC 4552) (Enterococcus sp.): 32 µg/mL (≈ 33.6 µM) | MIC Enterococcus faecalis (GC 4553) (Enterococcus sp.): 16 µg/mL (≈ 16.8 µM) | MIC Enterococcus faecalis (GC 4554) (Enterococcus sp.): 64 µg/mL (≈ 67.2 µM) | MIC Enterococcus faecalis (GC 6189) (Enterococcus sp.): 32 µg/mL (≈ 33.6 µM) | MIC Enterococcus faecium (GC 2243) (Enterococcus sp.): 16 µg/mL (≈ 16.8 µM) | MIC Enterococcus faecium (GC 4556) (Enterococcus sp.): 32 µg/mL (≈ 33.6 µM) | MIC Enterococcus faecium (GC 4557) (Enterococcus sp.): 8 µg/mL (≈ 8.39 µM) | MIC Escherichia coli (ATCC 25922) (Escherichia coli): 64 µg/mL (≈ 67.2 µM) | MIC Escherichia coli (GC 4559) (Escherichia coli): 64 µg/mL (≈ 67.2 µM) | MIC Escherichia coli (GC 4560) (Escherichia coli): 16 µg/mL (≈ 16.8 µM)
